Laboratory results reported in US6265423A, “Aromatic polycyclic retinoid-type derivatives, method for preparing same, and use thereof for making pharmaceutical and cosmetic compositions” (priority 1996, dated 2001).
“Also recorded” adds a separate entry of the source.

Key:
T-47D cells = test: Effect on oestrogen-induced proliferation of T-47D cells; assay type: cell-based, human; settings: estradiol 10^-9 M
Procedure: (§1) MCF-7 cells and HeLa are cultivated in DMFM with phenol red to which 5% foetal calf serum is added. The T47-D cells are cultivated in RPMI to which 10% foetal calf serum is added. The experimental tests are carried out in DMEM without phenol red to which foetal calf serum treated with dextran carbon is added at 3%. […] The experiments using the different retinoids are carried out sheltered from the light so as to avoid any isomerisation.
So as to test the anti-proliferation effect of the retinoids, growth experiments under oestrogenic conditions were carried out on cells MCF-7 and T-47D. These are the human oestrogen-dependent mammary cancer cells which express the receptor to RE oestrogens. The effect of the molecules is evaluated after 7 days of culture in oestrogenic conditions (estradiol 10^-9 M) by dosing the cellular DNA. The cells are distributed in 24 well plates at a density of 2×10^4 cells per well. The tests with the different retinoids are carried out in triplicate and the culture medium is changed after 4 days of growth.

[1] = test system: ERE-βGlob-Luc, MELN lineage (MCF-7); test: Anti-oestrogenic effect, MELN lineage activated by estradiol; assay type: cell-based, human; settings: for inhibition / inhibition at 0.1 µM / inhibition at 0.01 µM: Homo sapiens, MCF7, cells activated by 10^-9 M estradiol; for inhibition: 10^-6 M; for inhibition at 0.1 µM: 10^-7 M; for inhibition at 0.1 µM / inhibition at 0.01 µM: read-out: anti-oestrogenic effect, inhibition; for inhibition at 0.01 µM: 10^-8 M
Excerpt: (§2) Certain properties of the retinoids have been determined using more developed cellular models. These models consist of cellular lineages transfected in a stable fashion by recombinant plasmids which place the expression of the gene of the luciferase under the control of different nuclear response elements. […] The tests carried out in duplicate are described below for each of these models.
MCF-7 cells express RARα,γ and RXRα. The transfection of MCF-7 cells by an oestrogen-dependent gene (ERE-βGlob-Luc) has permitted the establishment of the MELN cellular lineage, used to determine the anti-oestrogenic activity of the retinoids. These cells contain the gene of the luciferase under the transcriptional control of the promoter of the βGlobine and of the response element ERE isolated from the gene of chicken vitelogenine A2. The experiments are carried out with MELN cells activated by 10^-9 M estradiol. The level of base activity of the MELN cells is obtained with the anti-oestrogen 1 μM 4-OH-tamoxifen (hydroxytamoxifen).
The effect of the products tested on the cells activated by 10^-9 M estradiol is expressed as a percentage, the level of base activity being deducted.

[2] = test system: human mammary tumoral lineage T-47D; test: Clonogenic test (soft agar), growth of cellular colonies; assay type: cell-based; settings: T-47D; for activity at 0.01 µM / activity at 0.001 µM / activity at 0.0001 µM: 504 h, 21 days, control = 100%, read-out: mean number of cellular colonies in relation to control; for activity at 0.001 µM: 10^-9 M; for activity at 0.0001 µM: 10^-10 M; for effect on growth of cellular colonies (in words): soft agar
Excerpt: The human tumour stem cells are the clonogenic cells which are the origin of the neoplasic cells which constitute a given tumour. These tumour stem cells are responsible for the recidivism process observable after surgical resection of the primary tumours and are also responsible for the formation of metastases. […] At the level of a tumour or of a tumoral cellular lineage, these clonogenic stem cells distinguish themselves from other clonogenic cells of the tumour or of the neoplasic cellular lineage being considered, by the fact that they preserve their ability to proliferate in the absence of any solid support.
This technique is suitable for the culturing in vitro of most of the tumours and tumoral cellular lineages of various histological types. In the context of this test, the neoplastic cells are cultured on a semi-solid culture medium "soft agar" made up of a mixture of agar and agarose. On this selective support, only tumoral stem cells survive and proliferate. […] The morphological characteristics and the growth of the cellular colonies are also a function of the histological type of the tumours being considered.
These culture conditions are also called "anchorage-independent" conditions.
The base medium "MEM 25 MM HEPES" (Minimum Essential Medium, Life Technologies, Belgium) contains Eagle salts but no L-glutamine. This medium is well suited to the growth of a range of varied diploid cells or primary mammal cells. To this medium is then added:
The tumoral cells are maintained in culture in 25 cm^2 falcon dishes (Life Technologies, Belgium). They are then trypsinised and individualised. Their rate of viability is determined by coloration with trypan blue (Sigma, Belgium). It must be greater than 90%. In the case where this condition is kept to, a cellular suspension at the desired concentration is prepared in a solution of agar at 0. 3%. The cells are then seeded between two layers of agar (Sigma, Belgium) and in 35 mm Petri dishes (Life Technologies, Belgium). The base layer is made up of a 0.5% solution of agar and the top layer is made up of a 0.3% solution of agar. The cupules are then positioned and held in an incubator at 37° C. and 5% of CO2. […] After treatment, the cupules are kept in the incubator for 21 days. It is advisable to examine, during the course of the experiment, the appearance and the increase of the cellular colonies. If after 10 days, no colony appears or is developing, the experiment must be repeated. In the contrary case, on the 21st day, 100 μl of an MTT solution (3-(4,5-dimethylthiazol-2-yl)-2,5 diphenyl tetrazolium bromide; Sigma, Belgium) dissolved in the RPMI culture medium (Roswell park Memorial Institute, Life Technologies, Belgium), at the concentration of 1 mg/ml are deposited on the top layer of the group of cupules. The cells are kept in contact with this solution for a minimum of 3 hours at 37° C.
Using an inverted microscope at low magnification, the number of clones whose surface area is greater thar. 100 μm^2 is determined for the group of cupules representing all the different experimental conditions. Then, for each of these experimental conditions, the mean number of cellular colonies±the standard error on the mean (ESM) is calculated.
The mean number of cellular colonies determined for each experimental condition is expressed as a percentage in relation to the control condition made equal to 100%.

[3] = test system: response element RARE of RARβ gene, endogenic retinoic receptors, HRLN lineage; test: HRLN transactivation (RARE-luciferase, stably transfected HeLa); assay type: cell-based; settings: Homo sapiens, HeLa; for EC50: concentrations from 1 nM to 1 μM; for Emax: read-out: HRLN transactivation, E max
Procedure: as §1, §2
The cellular lineages HRLN and HRL+N allow one to study the activation of an RARE by endogenic receptors using ligands at physiological concentrations. These lineages derive from HeLa cells transfected in a stable fashion by a reporter gene which places the expression of the gene of the luciferase under the control of a nuclear response element RARE (RARE3 -tk-Luc). The HeLa cells express all the known receptors of the retinoic acid (RARα,β,γ and RXRα,β,γ) with a predominance of RARα and RXRα. The response element RARE used for the HRLN cells corresponds to the sequence of the natural gene of the RARβ receptor (GGTTCAnnnnnAGTTCA). The HRL+N cells comprise the sequence GAGTGAnnnnnCGGTGA.
This lineage comprises the response element RARE of the natural gene of the RARβ receptor which controls the expression of the gene of the luciferase.

RARβ-ERcassette = test: Transactivation, chimerical receptor RARβ-ERcassette (HeLa); assay type: cell-based; settings: 10^-6 M; TTNPB 10^-8 M = 100
Excerpt: (§3) The HeLa cells are co-transfected by a plasmid which codes for a retinoic receptor in which the C domain of bonding to the DNA is substituted by that of the receptor to RE oestrogens, and a plasmid which places the expression of the luciferase under the control of an ERE (Element of Response to Oestrogens). The expressed chimerical receptors are designated as RARα-ERcassette, RARβ-ERcassette, RARγ-ERcassette and RXRα-ERcassette. The A, B, D, E and F regions of the natural receptor are preserved as well as the transcriptional co-operation between the activation domains AF-1 and AF-2. These transitory transfection experiments follow the method of co-precipitation to calcium phosphate. The HeLa cells are co-transfected by […] of plasmid coding for the chimerical receptor, […] of reporter plasmid and […] of expression vector CMV-β-galactosidase used as an internal control of transfection. 24 hours after the transfection, the cells are incubated for 16 hours with the different effectors.
(§4) In this type of chimerical receptor, the C domain of bonding to the DNA of RAR is substituted by that of the receptor to the RE oestrogens. The protein obtained is close to the natural RAR receptor and preserves the transcriptional properties of the AF-1 and AF-2 domains. It modulates the transcription by means of an ERE. This RAR-ERcassette model allows one to observe a transcriptional response to a more physiological ligand.

RARα-ERcassette = test: Transactivation, chimerical receptor RARα-ERcassette (HeLa); assay type: cell-based; settings: 10^-6 M; TTNPB 10^-8 M = 100
Excerpt: as §3, §4

RARγ-ERcassette = test: Transactivation, chimerical receptor RARγ-ERcassette (HeLa); assay type: cell-based; settings: 10^-6 M; TTNPB 10^-8 M = 100
Excerpt: as §3, §4

RAR and RXR receptors = test: RAR/RXR activity profile drawn from the models; assay type: cell-based
Excerpt: The reference molecules have allowed one to show the effectiveness and the complementary nature of the different models used and lead to the following conclusions: chimerical constructions GAL-RAR and RAR-ERcassette allow the determination of the RAR agonist profile of molecules, but also an RXR agonist activity with RAR-ERcassette, the HRLN lineage mainly conveys the activity of a compound mediated by endogenic RARα, the HRL+N lineage also provides evidence of an RXR agonist activity of the retinoids, the anti-oestrogenic effect of the retinoids (oestrogen-induced cellular proliferation and MELN lineage) is mediated by RARα, the anti-AP-1 effect is mediated in the MCF-7 cells (MTLN lineage) by RARα, RARγ and RXRα, and an additive effect exists between the RAR and RXR routes.

SMILES | EC50 [3] [nM] | RAR/RXR activity profile (in words) (RAR and RXR receptors) | inhibition at 1 µM (T-47D cells; Homo sapiens, T47D, 168 h, 1 μM (10^-6 M), 7 days, read-out: percentage inhibition of growth, T-47D) [%] | inhibition [1] [%] | activity at 0.01 µM ([2]; Homo sapiens, T47D, 10^-8 M) [%] | activity at 0.001 µM ([2]; Homo sapiens, T47D) [%] | activity at 0.0001 µM ([2]; Homo sapiens, T47D) [%] | effect on growth of cellular colonies (in words) [2] | Emax [3] [%] | RAR-ERcassette RARβ transactivation (RARβ-ERcassette) [%] | RAR-ERcassette RARα transactivation (RARα-ERcassette) [%] | inhibition at 0.1 µM [1] [%] | inhibition at 0.01 µM [1] [%] | RAR-ERcassette RARγ transactivation (RARγ-ERcassette) [%] | inhibition at 0.01 µM ([2]; Homo sapiens, T47D, 10^-8 M, read-out: inhibition of colony growth) [%] | effect on oestrogen-induced growth, T-47D (in words) (T-47D cells) | anti-oestrogenic effect (in words) ([1]; estradiol-activated MELN cells)
C/C(=C\c1ccc2c(c1)C(C)(C)CCC2(C)C)c1ccc(C(=O)O)s1 [CB38973] | 14.9 ± 12.3 |  | 55 | 30 | 38.6 ± 3.6 | 60.1 ± 2 | 68.4 ± 8.3 | inhibit the growth of the cellular colonies; also recorded: significantly inhibit the growth of the colonies | 89 |  |  |  |  |  |  |  | 
C/C(=C\c1ccc2c(c1)C(C)(C)CCC2(C)C)c1ccc(C(=O)O)nc1 [CB12273, (E) 5-[1-(5,6,7,8-tetrahydro-5,5,8,8-tetramethyl-2-naphthalenyl)-2-propenyl]pyridinyl-2-carboxylic acid] | 21.4 ± 5.6 |  |  | 21 to 41 | 71.2 ± 2.9 | 93.9 ± 3.3 | 92.9 ± 21.7 |  | 106 | 123 | 90 | 7 to 16 | 0 | 106 | 28.8 |  | 
C/C(=C\c1ccc2c(c1)C(C)(C)CCC2(C)C)c1ccc(C(=O)O)cc1 [CB24159, reference compound] | 0.08 ± 0.1 | RAR selective |  | 22 to 37 |  |  |  |  | 100 | 117 | 113 | 26 to 43 | 31 to 43 | 89 |  | inhibits the growth of the T-47D cells in a dose dependent manner with an efficacy greater than that of TTNPB | the most inhibiting of the oestrogenic transcription on the MELN model

More lines, main results first:

EC50 [3] [nM] | RAR/RXR activity profile (in words) (RAR and RXR receptors) | SMILES | inhibition at 1 µM (T-47D cells; Homo sapiens, T47D, 168 h, 1 μM (10^-6 M), 7 days, read-out: percentage inhibition of growth, T-47D) [%] | inhibition [1] [%] | activity at 0.01 µM ([2]; Homo sapiens, T47D, 10^-8 M) [%] | activity at 0.001 µM ([2]; Homo sapiens, T47D) [%] | activity at 0.0001 µM ([2]; Homo sapiens, T47D) [%] | effect on growth of cellular colonies (in words) [2] | Emax [3] [%] | RAR-ERcassette RARβ transactivation (RARβ-ERcassette) [%] | RAR-ERcassette RARα transactivation (RARα-ERcassette) [%] | inhibition at 0.1 µM [1] [%] | inhibition at 0.01 µM [1] [%] | RAR-ERcassette RARγ transactivation (RARγ-ERcassette) [%] | inhibition at 0.01 µM ([2]; Homo sapiens, T47D, 10^-8 M, read-out: inhibition of colony growth) [%] | effect on oestrogen-induced growth, T-47D (in words) (T-47D cells) | anti-oestrogenic effect (in words) ([1]; estradiol-activated MELN cells)
55.8 ± 70.1 |  | C/C(=C\c1ccc2c(c1)C(C)(C)CCC2(C)C)c1cc(C(=O)O)no1 [CB57201] |  | 23 to 41 | 64.8 ± 1.2 | 58.9 ± 11 | 75.2 ± 12.2 | inhibit the growth of the cellular colonies; also recorded: significantly inhibit the growth of the colonies | 70 | 132 | 73 | 1 to 9 | 0 | 84 |  |  | 
38.3 ± 9.5 |  | C/C(=C\c1ccc2c(c1)C(C)(C)CCC2(C)C)c1cc(C(=O)O)cs1 [CB80660] |  | 18 to 37 |  |  |  |  | 106 |  |  | 20 to 42 | 26 |  |  |  | 
